Patent US8119683B2, “Aryl substituted sulfonamide compounds and their use as anticancer agents” (Taipei Medical University, priority 2009, dated 2012)
Read-outs that look alike come from different tables or passages of the source.

Tests used:
[1] = tested on: normal human umbilical vein endothelial cells (HUVECs); assay: Cell growth inhibition assay, normal HUVECs; assay type: cell-based; conditions: HUVEC
Protocol: (§1) Human oral epidermoid carcinoma KB cells, non small cell lung carcinoma H460 cells, colorectal carcinoma HT29 cells, and stomach carcinoma MKN45 cells were maintained in RPMI-1640 medium supplied with 5% fetal bovine serum. The cells were treated with the test compound at various concentrations for 72 h. The effect of the test compound on cell growth was evaluated using a methylene blue dye assay similar to that described in Baguley et al., Anal Biochem, 1984, 139: 272-277. […] Compounds 16, 17, and 24 were tested on these three cell lines using methylene blue dye assay. ABT-751 was used as positive control (which was synthesized with the method described in Yoshino et al., J. Med. Chem. 1992, 35, 2496-2497; descriptions of ABT-751 can also be found in Koyanagi et al., Cancer Res. 1994, 54, 1702-1706; Yee et al., Cancer Res. 2005, 11, 6615-6624; and Mauer, et al., J. Thorac. Oncol. 2008, 3, 613-636).
(§2) Further, Compound 24 was tested on non-small-cell lung cancer A549 and H1299 cells, colorectal carcinoma HT29, and normal human umbilical vein endothelial cells (HUVECs).

[2] = tested on: KB-7D cells; assay: Cell growth inhibition assay on drug-resistant KB-7D cells; assay type: cell-based; conditions: Homo sapiens, KB7D, Etoposide resistance
Protocol: (§3) Cell in logarithmic phase were cultured at a density of 5000 cells/mL/well in a 24-well plate. KB-VIN10 cells were cultured in a medium free of test compound for 3 days prior to use. The cells were treated with the test compound at various concentrations for 72 h. The effect of the test compound on cell growth was evaluated using the methylene blue dye assay. […] Compounds 16 and 24 were tested in this assay. […] KB-CPT100 and KB-CPT300 cells were generated by camptothecin-driven selection. […] (See Liou, J. P. et al J. Med. Chem. 2004, 47, 4247-4257 and Kuo, C. C. et al. Cancer Res. 2004, 64, 4621-4628.) Anticancer activities of the aryl substituted sulfonamide compounds synthesized in the above examples were evaluated by testing their inhibitory effects on these drug-resistant cell lines. Compound 24 was tested in this assay.

[3] = tested on: colorectal carcinoma HT29 cells; assay: Cell growth inhibition assay, HT29 cells; assay type: cell-based; conditions: Homo sapiens, HT-29
Protocol: as §1, §2

[4] = tested on: KB-CPT300 cells; assay: Cell growth inhibition assay on drug-resistant KB-CPT300 cells; assay type: cell-based; conditions: Homo sapiens; KB-CPT300, Camptothecin resistance
Protocol: as §3

[5] = tested on: non-small-cell lung cancer A549 cells; assay: Cell growth inhibition assay, A549 cells; assay type: cell-based; conditions: Homo sapiens
Protocol: as §1, §2

[6] = tested on: VEGF165; assay: VEGF production inhibition assay (ELISA); assay type: cell-based; conditions: Homo sapiens, medium of the HUVEC network assay
Protocol: (ii) VEGF Production Inhibition Assay
The medium of assay (i) above was collected. VEGF165 levels were measure by ELISA. In brief, a monoclonal antibody specific for VEGF was pre-coated onto a microplate. A control cell culture medium and the medium of assay (i) were added into the wells and any VEGF present was bound to the wells by the immobilized antibody. After washing away any unbound substances, an enzyme-linked polyclonal antibody specific for VEGF was added to the wells. Following a wash to remove any unbound antibody-enzyme reagent, a substrate solution was added to the wells and color developed in proportion to the amount of VEGF bound in the initial step. The color development was stopped and the intensity of the color was measured.

[7] = tested on: non small cell lung carcinoma H460 cells; assay: Cell growth inhibition assay (methylene blue dye), H460 cells; assay type: cell-based; conditions: Homo sapiens, NCI-H460, 72 h, read-out: Cell type (IC50 ± SD, nM) H460 (lung)
Protocol: (§4) Anticancer activities of the aryl substituted sulfonamide compounds synthesized in the above examples were evaluated by testing their inhibitory effects on mammalian cancer cell growth.
(§5) Human oral epidermoid carcinoma KB cells, non small cell lung carcinoma H460 cells, colorectal carcinoma HT29 cells, and stomach carcinoma MKN45 cells were maintained in RPMI-1640 medium supplied with 5% fetal bovine serum. The cells were treated with the test compound at various concentrations for 72 h.

[8] = tested on: KB-TAX50 cells; assay: Cell growth inhibition assay on drug-resistant KB-TAX50 cells; assay type: cell-based; conditions: Homo sapiens; KB-TAX50, Paclitaxel resistance
Protocol: as §3

[9] = tested on: KB-L30 cells; assay: Cell growth inhibition assay on drug-resistant KB-L30 cells; assay type: cell-based; conditions: Homo sapiens; KB-L30, BPR0L075 resistance
Protocol: as §3

[10] = tested on: drug-resistant cell lines (KB-VIN10, KB-TAX50, KB-7D, KB-CPT100, KB-CPT300, KB-L30); assay: Growth inhibition on the drug-resistant KB cell lines (summary over the lines); assay type: cell-based; conditions: Homo sapiens, summary of Table 3, read-out: IC50 values on the drug-resistant cell lines (range over lines)
Protocol: as §3

[11] = tested on: KB-CPT100 cells; assay: Cell growth inhibition assay on drug-resistant KB-CPT100 cells; assay type: cell-based; conditions: Homo sapiens, KBCPT100; KB-CPT100, Camptothecin resistance
Protocol: as §3

[12] = tested on: Human umbilical vein endothelial cells (HUVECs); assay: Cellular network (tube) formation inhibition assay; assay type: cell-based
Protocol: (i) Cellular Network Formation Inhibition Assay
Each well of a 96-well plate was coated with an extracellular matrix containing collagen for 1 hr to allow the gel to solidify. Human umbilical vein endothelial cells (HUVECs) suspension was prepared at a concentration of 1×10^5 cells/mL in M199 medium supplemented with endothelial cell growth supplements with 20% FBS. Then, 100 μl of the cell suspension was added to each gel-coated well of the plate. Cells were incubated with or without a test compound for 18 hrs at 37° C. Without the test compound, a cellular network structure was fully developed after 12-18 hrs of incubation. The number of tubes formed was counted using light microscopy at 200× magnification.

[13] = tested on: KB-VIN10 cells; assay: Cell growth inhibition assay on multidrug resistant KB-VIN10 cells; assay type: cell-based; conditions: Homo sapiens
Protocol: Cell in logarithmic phase were cultured at a density of 5000 cells/mL/well in a 24-well plate. KB-VIN10 cells were cultured in a medium free of test compound for 3 days prior to use. The cells were treated with the test compound at various concentrations for 72 h. The effect of the test compound on cell growth was evaluated using the methylene blue dye assay. […] KB-CPT100 and KB-CPT300 cells were generated by camptothecin-driven selection. […] (See Liou, J. P. et al J. Med. Chem. 2004, 47, 4247-4257 and Kuo, C. C. et al. Cancer Res. 2004, 64, 4621-4628.) Anticancer activities of the aryl substituted sulfonamide compounds synthesized in the above examples were evaluated by testing their inhibitory effects on these drug-resistant cell lines. Compound 24 was tested in this assay.

[14] = tested on: stomach carcinoma MKN45 cells; assay: Cell growth inhibition assay (methylene blue dye), MKN45 cells; assay type: cell-based; conditions: Homo sapiens, MKN-45, 72 h, read-out: Cell type (IC50 ± SD, nM) MKN45 (stomach)
Protocol: as §4, §5

[15] = tested on: CD31-positive cells in tumor tissue (microvessel density); assay: Anti-vascular activity, CD31 immunofluorescence staining in tumor tissues; assay type: in vivo; set-up: dose or concentration left out as unconfirmed; conditions: tumor tissue from mice
Protocol: Anti-vascular activities of the aryl substituted sulfonamide compounds were evaluated by immunofluorescence staining in tumor tissues.
Rat anti-mouse CD31 antibodies were purchased from BD Biosciences. Tumor tissue samples were harvested from mice in both the control and test compound-treated groups. Frozen sections were fixed with acetone and chloroform. To block nonspecific proteins, each sample was incubated in 4.5% fish gelatin (BB International Co.) for 20 min. Expression of CD31 was detected in blood vessels using rat anti-mouse CD31 as the primary antibody and TexasRed (Jackson) labeled-goat anti-rat IgG antibody as the secondary antibody. The mean microvessel density (MVD) was determined by first counting and then averaging the number of CD31-positive cells in five random high power microscopic fields from different tumor samples.

[16] = tested on: non-small-cell lung cancer H1299 cells; assay: Cell growth inhibition assay, H1299 cells; assay type: cell-based; conditions: Homo sapiens, NCI-H1299
Protocol: as §1, §2

[17] = tested on: Human oral epidermoid carcinoma KB cells; assay: Cell growth inhibition assay (methylene blue dye), KB cells; assay type: cell-based
Protocol: as §4, §5

[18] = KB-VIN10 (P-gp170/MDR overexpression), 72 h, methylene blue, read-out: IC50, growth inhibition of KB-VIN10 cells
[19] = KB cells, 72 h, methylene blue dye assay, read-out: Cell type (IC50 ± SD, nM) KB (oral)
[20] = KB cells, bands, read-out: IC50, inhibiting proliferation of KB cells (band)

IC50 [7]	melting point	IC50 [13, 18]	IC50 [14]	IC50 [17, 19]	IC50 [17, 20]	Compound	other results
218 ± 4 nM		385 nM	166 ± 8 nM	251 ± 65 nM		COc1ccc(S(=O)(=O)Nc2cccnc2Nc2ccc(O)cc2)cc1 [ABT-751, reference compound]	
29.5 ± 14.8 nM	157.2 to 158.9 °C		17.2 ± 8.6 nM	31.1 ± 5.4 nM	1 to 99 nM	COc1ccc(S(=O)(=O)N2CCc3cccc(-c4ccc(C#N)cc4)c32)cc1 [Compound 17, 4-[1-(4-methoxy-benzenesulfonyl)-2,3-dihydro-1H-indol-7-yl]-benzonitrile]	

Further lines, the compound ahead of its results:

Compound	IC50 [7]	melting point	IC50 [13, 18]	IC50 [14]	IC50 [17, 19]	IC50 [17, 20]	other results
COc1ccc(S(=O)(=O)N2CCc3cccc(-c4ccncc4)c32)cc1 [Compound 24, 1-(4-methoxy-benzenesulfonyl)-7-pyridin-4-yl-2,3-dihydro-1H-indole]	101 ± 8 nM	195.9 to 196.8 °C	106 nM	69.5 ± 7.6 nM	96 ± 14.1 nM	1 to 99 nM	IC50 [1]: 510 ± 22.2 nM; IC50 [2]: 257 ± 26.6 nM; IC50 [3]: 201 ± 13.9 nM; IC50 [4]: 93 ± 15.7 nM; IC50 [5]: 150 ± 8.5 nM; inhibition at 0.5 µM [6]: > 50%; IC50 [8]: 188 ± 25.3 nM; IC50 [9]: 237 ± 26.6 nM; IC50 [10]: 90 to 250 nM; IC50 [11]: 95 ± 12.1 nM; IC50 ([12]; Homo sapiens, HUVEC, 18 hrs, unit inferred): 500 nM; tube formation inhibition ([12]; at 1.5 (unit not given)): completely inhibited tube formation; IC50 ([13]; KB-VIN10, Vincristine resistance, read-out: Growth Inhibition (IC50)): 106 ± 18 nM; decrease of vascular area compared to the blank control [15]: five-fold; IC50 [16]: 132 ± 13.7 nM; IC50 ([17]; KB (Parental), Table 3, read-out: Growth Inhibition (IC50)): 96 ± 14.1 nM
COc1ccc(S(=O)(=O)N2CCc3cccc(-c4ccc(F)cc4)c32)cc1 [Compound 28, 7-(4-fluoro-phenyl)-1-(4-methoxy-benzenesulfonyl)-2,3-dihydro-1H-indole]		178.1 to 179.4 °C				1 to 99 nM	
COc1ccc(S(=O)(=O)N2CCc3cccc(-c4ccc(F)nc4)c32)cc1 [Compound 25, 7-(6-fluoro-pyridin-3-yl)-1-(4-methoxy-benzenesulfonyl)-2,3-dihydro-1H-indole]		139.8 to 141.7 °C				100 to 700 nM	
